Assay: Phase 1 and phase 2 clinical studies of fimepinostat, treatment-emergent adverse events (CTCAE v4.03)
Format: in vivo, human
Conditions: intention to treat population (n = 58)
Procedure: Patients received fimepinostat capsules (Pharmatek Laboratories Inc., San Diego, CA, USA) orally, within 30 minutes of a meal, in 21-day cycles until disease progression was documented or other discontinuation criteria were met. In the phase 2 protocol, change in dose and/or schedule intensity of fimepinostat were allowed as per protocol due to toxicity. Safety and tolerability were assessed by the incidence and severity of adverse events as determined by NCI Common Terminology Criteria for Adverse Events (CTCAE v4.03) in both protocols.
The intention to-treat-population included al patients from both protocols who received at least one dose of fimepinostat. The evaluable population includes all patients who received at least one dose of study drug (phase 1) or one full cycle of treatment (phase 2) and completed at least one post-baseline disease assessment. Patients were re-staged according to the Revised Response Criteria for Malignant Lymphoma.^18
All patients received fimepinostat 60 mg by mouth 5 days on/2 days off as the starting dose with the exception of 1 patient enrolled in the phase 1 protocol who received 60 mg by mouth three times weekly. Three patients enrolled in the phase 1 protocol received concurrent rituximab.
Treatment-emergent adverse events (TEAE) occurring per patient by highest grade experienced with a frequency of ≥10% are listed in Table 5. The most common TEAE of any grade were diarrhea (72%), nausea (52%) and thrombocytopenia (38%). The most common grade 3 or 4 adverse events were […], neutropenia (15%), diarrhea (12%) and anemia (12%). Three patients experienced grade 5 TEAE: respiratory failure deemed unlikely related to treatment in 1 patient, sepsis deemed not related to treatment in 1 patient and tracheal obstruction deemed not related to treatment in 1 patient. Two non-evaluable patients discontinued treatment due to TEAE: grade 2 vomiting deemed related to treatment occurring in 1 patient and grade 4 hypercalcemia deemed unlikely related to treatment in 1 patient.

SMILES: COc1ccc(-c2nc(N3CCOCC3)c3sc(CN(C)c4ncc(C(=O)NO)cn4)cc3n2)cn1 [fimepinostat, Fimepinostat]
- TEAE Abdominal pain, patients n (%) (Grade 3): 3 (5)
- TEAE Anemia, patients n (%) (Grade 3): 7 (12)
- TEAE Arthralgia, patients n (%) (Grade 3): 0 (0)
- TEAE Back pain, patients n (%) (Grade 3): 1 (2)
- TEAE Constipation, patients n (%) (Grade 3): 0 (0)
- TEAE Cough, patients n (%) (Grade 3): 0 (0)
- TEAE Decreased appetite, patients n (%) (Grade 3): 0 (0)
- TEAE Diarrhea, patients n (%) (Grade 3): 7 (12)
- TEAE Dizziness, patients n (%) (Grade 3): 0 (0)
- TEAE Dyspnea, patients n (%) (Grade 3): 3 (5)
- TEAE Edema peripheral, patients n (%) (Grade 3): 0 (0)
- TEAE Fatigue, patients n (%) (Grade 3): 1 (2)
- TEAE Hypokalemia, patients n (%) (Grade 3): 6 (10)
- TEAE Hypomagnesaemia, patients n (%) (Grade 3): 0 (0)
- TEAE Hypophosphatemia, patients n (%) (Grade 3): 4 (7)
- TEAE Lymphocyte count decreased, patients n (%) (Grade 3): 3 (5)
- TEAE Nausea, patients n (%) (Grade 3): 0 (0)
- TEAE Neutropenia, patients n (%) (Grade 3): 7 (12)
- TEAE Pain in extremity, patients n (%) (Grade 3): 1 (2)
- TEAE Pyrexia, patients n (%) (Grade 3): 1 (2)
- TEAE Thrombocytopenia, patients n (%) (Grade 3): 11 (19)
- TEAE Upper respiratory tract infection, patients n (%) (Grade 3): 0 (0)
- TEAE Vomiting, patients n (%) (Grade 3): 1 (2)
- TEAE Weight decreased, patients n (%) (Grade 3): 1 (2)
- TEAE White blood cell count decreased, patients n (%) (Grade 3): 3 (5)
- TEAE Abdominal pain, patients n (%) (Grade 4): 0 (0)
- TEAE Anemia, patients n (%) (Grade 4): 0 (0)
- TEAE Arthralgia, patients n (%) (Grade 4): 0 (0)
- TEAE Back pain, patients n (%) (Grade 4): 0 (0)
- TEAE Constipation, patients n (%) (Grade 4): 0 (0)
- TEAE Cough, patients n (%) (Grade 4): 0 (0)
- TEAE Decreased appetite, patients n (%) (Grade 4): 0 (0)
- TEAE Diarrhea, patients n (%) (Grade 4): 0 (0)
- TEAE Dizziness, patients n (%) (Grade 4): 0 (0)
- TEAE Dyspnea, patients n (%) (Grade 4): 0 (0)
- TEAE Edema peripheral, patients n (%) (Grade 4): 0 (0)
- TEAE Fatigue, patients n (%) (Grade 4): 0 (0)
- TEAE Hypokalemia, patients n (%) (Grade 4): 0 (0)
- TEAE Hypomagnesaemia, patients n (%) (Grade 4): 0 (0)
- TEAE Hypophosphatemia, patients n (%) (Grade 4): 0 (0)
- TEAE Lymphocyte count decreased, patients n (%) (Grade 4): 0 (0)
- TEAE Nausea, patients n (%) (Grade 4): 0 (0)
- TEAE Neutropenia, patients n (%) (Grade 4): 2 (3)
- TEAE Pain in extremity, patients n (%) (Grade 4): 0 (0)
- TEAE Pyrexia, patients n (%) (Grade 4): 0 (0)
- TEAE Thrombocytopenia, patients n (%) (Grade 4): 3 (5)
- TEAE Upper respiratory tract infection, patients n (%) (Grade 4): 0 (0)
- TEAE Vomiting, patients n (%) (Grade 4): 0 (0)
- TEAE Weight decreased, patients n (%) (Grade 4): 0 (0)
- TEAE White blood cell count decreased, patients n (%) (Grade 4): 1 (2)
- TEAE Abdominal pain, patients n (%) (Grades 1-2): 6 (10)
- TEAE Anemia, patients n (%) (Grades 1-2): 6 (10)
- TEAE Arthralgia, patients n (%) (Grades 1-2): 7 (12)
- TEAE Back pain, patients n (%) (Grades 1-2): 5 (9)
- TEAE Constipation, patients n (%) (Grades 1-2): 14 (24)
- TEAE Cough, patients n (%) (Grades 1-2): 9 (16)
- TEAE Decreased appetite, patients n (%) (Grades 1-2): 18 (31)
- TEAE Diarrhea, patients n (%) (Grades 1-2): 35 (60)
- TEAE Dizziness, patients n (%) (Grades 1-2): 8 (14)
- TEAE Dyspnea, patients n (%) (Grades 1-2): 6 (10)
- TEAE Edema peripheral, patients n (%) (Grades 1-2): 6 (10)
- TEAE Fatigue, patients n (%) (Grades 1-2): 18 (31)
